# Experiments:
# Experiment in all cases: 3' UTR reporter interaction score (median-centred robust z-score of log2 firefly/Renilla activity); higher = less repression of the 3' UTR reporter
# Conditions in all cases: HEK293T; 48 h
# [1] = test system: MYCN
# Method in brief: (§1)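 In at least two independent screens, HEK293T cells in 96-well plates (10,000/well) were co-transfected with DharmaFECT Duo using 100 ng firefly luc2P reporter with the gene's 3' UTR, 20 ng Renilla pRL-TK control and 2.5 pmol miRNA mimic, and dual-luciferase activities were read at 48 h. The interaction score, averaged across screens, is the per-plate robust z-score (median, median absolute deviation) of the log firefly/Renilla ratio, median-centred per miRNA, with more negative indicating interaction.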
# [2] = test system: PHOX2B
# Method in brief: as §1
# [3] = test system: EZH2
# Method in brief: as §1
# [4] = test system: MYB
# Method in brief: as §1
# [5] = test system: MYC
# Method in brief: as §1
# [6] = test system: RB1
# Method in brief: as §1
# [7] = test system: HRAS
# Method in brief: as §1
# [8] = test system: NOTCH1
# Method in brief: as §1
# [9] = test system: MYT1L
# Method in brief: as §1
# [10] = test system: FBXW7
# Method in brief: as §1
# [11] = test system: ZEB2
# Method in brief: as §1
# [12] = test system: BRCA2
# Method in brief: as §1
# [13] = test system: PHF6
# Method in brief: as §1
# [14] = test system: TP53
# Method in brief: as §1
Sequence,3' UTR reporter interaction score [1],3' UTR reporter interaction score [2],3' UTR reporter interaction score [3],3' UTR reporter interaction score [4],3' UTR reporter interaction score [5],3' UTR reporter interaction score [6],3' UTR reporter interaction score [7],3' UTR reporter interaction score [8],3' UTR reporter interaction score [9],3' UTR reporter interaction score [10],3' UTR reporter interaction score [11],3' UTR reporter interaction score [12],3' UTR reporter interaction score [13],3' UTR reporter interaction score [14]
GCGAGGACCCCUCGGGGUCUGAC,-0.654,0.436,-0.18,0.547,-0.466,0.707,0.0816,-0.131,-0.47,0.437,-0.584,0.357,-0.251,0.0903
GCGUGCGCCGGCCGGCCGCC,-1.25,0.436,0.589,-0.399,-1.82,-0.23,-0.392,-0.272,-0.142,0.516,-0.647,0.432,1.71,0.961
GCUAGUCCUGACUCAGCCAGU,0.0989,0.384,-0.186,0.624,-0.713,0.4,-0.409,-0.242,0.167,0.368,0.364,4.86e-17,-0.0579,-0.219
GCUGCGCUUGGAUUUCGUCCCC,0.248,-1.97,-0.09,0.616,0.388,1.16,-0.573,2.01,0.46,-0.688,0.715,-0.029,0.794,-0.861
GCUGGGCAGGGCUUCUGAGCUCCUU,0.117,1.06,-0.0238,0.00877,-0.481,0.659,-0.298,-0.244,-0.4,-0.37,0.0169,-0.0026,0.53,-0.0785
GGAGAAAUUAUCCUUGGUGUGU,-0.523,1.16,-0.15,-0.159,-1.2,0.166,-0.545,0.146,0.261,0.978,-0.311,-0.364,0.937,0.00656
GGCGGAGGGAAGUAGGUCCGUUGGU,-0.331,-1.42,0.332,0.0558,-0.0304,0.267,-0.537,0.067,0.0209,-0.817,0.059,0.242,0.0679,-0.152
GGCUGGCUCGCGAUGUCUGUUU,0.967,0.166,-0.172,-2.48,-0.237,0.183,-0.0445,-0.649,1.15,0.4,0.922,-2.13,0.0685,0.4
GGGCGCCUGUGAUCCCAAC,-0.708,0.588,0.0894,0.137,-0.484,-0.433,-0.201,-0.381,0.181,0.114,-0.0882,-0.242,-0.831,0.186
GGUAGAUUCUCCUUCUAUGAG,0.767,0.393,-0.351,0.783,0.11,-0.935,-0.338,-0.435,1.11,1.14,0.717,-0.394,0.87,-0.00155
GUCAACACUUGCUGGUUUCCUC,-0.83,-0.934,1.25,-0.366,1.11,0.731,-1.53,-0.696,-2.13,1.04,-0.604,1.05,0.545,-0.391
GUCAUACACGGCUCUCCUCUCU,-1.89,-0.585,-0.733,0.607,0.275,-0.0565,0.779,0.867,-0.904,-0.585,0.639,0.502,-2.04,-0.0395
GUCCAGUUUUCCCAGGAAUCCCUU,-0.357,-0.361,0.32,0.98,-0.0253,-0.0539,-1.3,0.816,0.164,-0.33,-0.186,0.301,0.802,-0.611
GUCCCUCUCCAAAUGUGUCUUG,1.77,-0.224,0.871,1.83,1.7,-0.267,0.01,-0.392,-0.216,-1.89,-3.03,0.364,-1.08,0.415
GUCCGCUCGGCGGUGGCCCA,-0.651,0.167,0.465,0.218,-0.572,-0.471,0.202,0.197,0.878,-0.455,0.167,-0.044,0.23,0.883
GUGAGUCUCUAAGAAAAGAGGA,-0.777,-1.54,-0.0137,-1.86,-0.241,-0.543,-1.03,0.287,0.22,1.15,0.201,0.654,0.947,1.06
GUGCAUUGCUGUUGCAUUGCA,0.79,0.67,0.0384,-2.09,-1.33,-0.687,-0.237,0.367,0.516,-0.35,-2.34,-0.52,-0.271,0.631
GUGCAUUGUAGUUGCAUUG,-0.218,1.4,-0.326,0.56,-0.88,-0.339,-0.432,0.471,-0.399,0.387,-0.884,-0.383,-0.0198,0.444
GUGCCGCCAUCUUUUGAGUGU,0.415,-0.654,1.03,0.102,1.02,0.47,-0.278,-0.278,-0.378,-3.5,-1.72,-0.313,1.8,0.183

Sequence,3' UTR reporter interaction score [1],3' UTR reporter interaction score [2],3' UTR reporter interaction score [3],3' UTR reporter interaction score [4],3' UTR reporter interaction score [5],3' UTR reporter interaction score [6],3' UTR reporter interaction score [7],3' UTR reporter interaction score [8],3' UTR reporter interaction score [9],3' UTR reporter interaction score [10],3' UTR reporter interaction score [11],3' UTR reporter interaction score [12],3' UTR reporter interaction score [13],3' UTR reporter interaction score [14]
GUGCCUACUGAGCUGAUAUCAGU,0.559,1.18,0.242,0.61,0.239,0.454,-0.972,-1.95,-1.1,0.26,-0.6,0.244,-1.31,0.396
GUGGCUGCACUCACUUCCUUC,1.8,-0.165,0.166,0.056,0.00108,1.44,-0.434,0.486,1.48,0.899,-0.491,-1.87,1.53,-1.37
GUGUCUGCUUCCUGUGGGA,-0.382,-0.344,-0.0979,-0.0781,-0.0744,-0.362,-2.48,-0.363,0.553,0.999,0.24,0.42,0.326,0.286
GUGUCUUUUGCUCUGCAGUCA,0.0597,-2.8,1.94,-0.175,1.06,0.189,2.01,-1.08,0.207,-1.58,-1.45,-0.493,-0.433,0.375
GUGUGUGGAAAUGCUUCUGC,1.7,-1.13,1.67,1.87,-0.259,1.07,0.713,-0.133,-1.13,-0.236,-1.28,-2.78,1.54,-0.707
GUUCAAAUCCAGAUCUAUAAC,-0.012,1.14,-0.256,-0.548,-0.205,-0.538,-0.14,-0.33,-0.972,1.03,0.383,0.0735,-0.553,0.149
GUUCUCCCAACGUAAGCCCAGC,0.962,1.74,0.22,-4.37,-0.299,-0.277,0.00988,-0.479,0.882,1.08,-0.194,-0.8,0.685,0.732
GUUGGAGGAUGAAAGUACGGAGUGAU,0.4,1.82,0.25,0.331,-0.154,0.55,-0.155,-0.207,-0.433,1.07,0.0694,-1.61,0.571,-1.24
GUUGUGUCAGUUUAUCAAAC,0.0505,-0.364,0.353,0.442,0.0323,-1.51,0.822,-0.822,-0.86,-0.0228,-0.154,-0.269,-1.91,0.224
GUUUGCACGGGUGGGCCUUGUCU,1.09,0.0301,-0.233,-0.536,-0.328,-0.0813,-1.1,0.297,2.21,-0.619,-1.23,0.0623,0.29,-0.225
UAAACGUGGAUGUACUUGCUUU,-0.319,-0.628,0.463,-0.172,-1.34,0.153,-0.799,0.553,-0.58,0.998,0.846,0.489,-1.71,0.196
UAAAGCUAGAUAACCGAAAGU,-1.46,0.965,0.346,0.558,0.416,0.722,0.407,1.01,-1.97,-0.801,-0.694,1.05,-0.609,0.374
UAAAGUAAAUAUGCACCAAAA,-0.59,1.69,0.367,-0.21,0.043,-0.322,0.372,0.429,-0.0291,-0.197,-0.265,-0.0915,-0.814,0.703
UAAAGUGCUGACAGUGCAGAU,-0.735,0.0581,-0.906,-0.631,0.528,-0.838,0.312,0.373,-2.37,-0.356,0.619,0.319,0.442,-0.0101
UAAAUCCCAUGGUGCCUUCUCCU,1.04,0.298,0.24,-0.131,0.0891,0.989,-0.598,0.16,-0.319,-0.794,-0.698,0.0242,1.14,0.00864
UAACACUGUCUGGUAAAGAUGG,0.21,-0.774,-0.173,0.229,0.0647,0.257,0.0521,-0.447,-4.79,-0.104,-7.02,-0.392,-1.93,0.617
UAACACUGUCUGGUAACGAUGU,-0.465,-0.223,-0.274,0.219,-0.268,0.104,0.337,0.173,-5.06,0.00413,-5.66,0.575,1.8,-0.247
UAACAGUCUACAGCCAUGGUCG,0.783,-0.125,1.32,0.1,0.473,-1.41,0.64,-0.392,1,-0.629,-0.631,-0.186,-0.351,-1.07
UAACAGUCUCCAGUCACGGCC,0.167,-0.145,0.108,-1.89,-0.0995,-2.21,-0.229,-0.389,1.02,0.973,1.77,-0.504,-0.767,-0.811

# Reference: the supplement of paper PMC5844555
